Our source for the Km values is publication PMC12968138, “CreSAMT1 is mainly responsible for the biosynthesis of characteristic aroma compound dimethyl anthranilate in Citrus reticulata ‘Chachiensis’” (Horticulture Research, 2025).

SMILES strings stand for the structures.

One assay has as its system T1, CreSAMT1.
T1 construct: His-tagged (pET6xHN), E. coli BL21(DE3), Ni-IDA purified; tag cleavage not mentioned
Kind of assay: GC-MS of methyl ester product, Michaelis-Menten fit. The format is biochemical, Citrus reticulata. As to conditions: co-substrate SAM, Tris-HCl, KCl, pH 7.0, 35 °C. The source says:
GC-MS of methyl ester product, Michaelis-Menten fit on CreSAMT1

The next assay has as its system T2, CreSAMT2.
T2 construct: His-tagged (pET6xHN), E. coli BL21(DE3), Ni-IDA purified; tag cleavage not mentioned
Described as above. Conditions: co-substrate SAM, Tris-HCl, KCl, pH 7.0, 25 °C. The format is biochemical, Citrus reticulata. The source says:
GC-MS of methyl ester product, Michaelis-Menten fit on CreSAMT2

With `Nc1ccccc1C(=O)O` [AA, anthranilate], the Km with CreSAMT1 (sodium salt used) worked out at 4.82 ± 1.53 µM; in the assay on CreSAMT2 (sodium salt used), 18 ± 1.9 µM.
Turning to `O=C(O)c1ccccc1` [BA, benzoic acid], the figures for the Km in the assay with CreSAMT1 and in the assay with CreSAMT2 were 61.9 ± 30.7 µM and 25 ± 6.89 µM, respectively.
For `CNc1ccccc1C(=O)O` [NMA, N-methyl-2-aminobenzoic acid] the same measures were 164 ± 98.4 µM and 128 ± 58.9 µM.
The matching figures for `O=C(O)c1ccccc1O` [SA, salicylic acid]: 101 ± 33.5 µM and 53 ± 11.2 µM.
